3 compounds from patent US6737434B2, “Imidazole derivatives or their salts” (SSP Co., Ltd., priority 2000, dated 2004) can be followed below.

The assay relates to human G-CSF-dependent cell strain (BAF/hGCSFR). Kind of assay: Induction of cell growth of a human G-CSF-dependent cell strain (WST-1 absorbance), expressed as human-G-CSF equivalent concentration. Format: cell-based. The settings on record: 48 hours incubation, mean±standard error, n=5. The procedure: Cloning of human G-CSF receptor gene was performed through RT-PCR by using primers created on the basis of the human G-CSF receptor gene using a human spleen cDNA library. The thus cloned human G-CSF receptor gene inserted to a multicloning site of an expression vector. Subsequently, the gene-inserted expression vector was transformed into E. coli for multiplication, and the expression vector was extracted. An aliquot of the expression vector (20 μg) was added to host cells (BAF/B03) prepared to 5×10^7 cells/800 μL K-PBS (30.8 mM NaCl, 120.7 mM KCl, 8.1 mM Na2HPO4, 1.46 mM KH2PO4, 5 mM MgCl2), followed by standing still at 4° C. for 15 minutes. For gene transfer, electroporation was performed at a voltage of 280 V and a capacitance of 950 μF. After completion of gene transfer, the cells were suspended in a DMEM medium ((+) 10% FCS) containing recombinant human G-CSF (rhG-CSF, 20 ng/mL) and puromycin (2 μg/mL), whereby a human G-CSF dependent cell strain was created.
For studying the cell multiplication ability with respect to rhG-CSF, the following procedure was carried out. Briefly, cells in which the human G-CSF receptor gene had been inserted (BAF/hGCSFR) were collected, and washed with PBS(−). Subsequently, the cells were suspended in DMEM medium, and the medium containing the cells was prepared to the wells of a 96-well plate (5×10^4 cells/well). Then, rhG-CSF was added to the wells (0, 0.006, 0.025, 0.1, 0.4 ng/mL), and the cells in the wells were cultured under 5% CO2 for 48 hours at 37° C. After completion of incubation, a solution of WST-1/1-methoxy PMS was added to the wells (final concentration: 5 mM), and the cells in the wells were cultured in a CO2 incubator for 2 hours. After completion of incubation, the absorbance of the cultured solution was measured at a wavelength of 450 nm. The results are shown in FIG. 1 (mean±standard error, n=5).
A solution prepared by diluting a compound with DMEM was added to the wells of a 96-well microplate (10 μL/well). The human G-CSF-dependent cell strain was added to the wells (5.0×10^4 cells/100 μL), followed by incubation for 48 hours at 37° C. After completion of incubation, a solution of WST-1/1-methoxy PMS (final concentration: 5 mM) was added to the wells, followed by incubation in a CO2 incubator for 2 hours. After completion of incubation, the absorbance was measured at a wavelength of 450 nm. The results are shown in FIG. 2 (mean±standard error, n=5).
Using the test data obtained from Test Example 1, human-G-CSF equivalent concentrations (ng/mL) corresponding to respective compound concentrations employed in Test Example 2 were calculated. The results are shown in Table 1 (mean±standard error, n=5).
(In general: Tetrazolium dyes change colour on reduction, which living cells bring about.)

Consider `CCCCCCCCOc1ccc(Cl)cc1C(C)(O)Cn1ccnc1` (stereo not drawn) [Compound (1-3), 2-(5-Chloro-2-(n-octyloxy)phenyl)-1-(1H-1-imidazolyl)-2-propanol], for which the human-G-CSF equivalent concentration (compound conc. 10^−6 M) is 0.057 ± 0.0005 ng/mL, the human-G-CSF equivalent concentration (compound conc. 10^−7 M) is on record as 0.057 ± 0.0005 ng/mL and the human-G-CSF equivalent concentration (compound conc. 10^−8 M) worked out at 0.018 ± 0.0001 ng/mL.
For `CCCCCCCOc1ccc(Cl)cc1C(C)(O)Cn1ccnc1` (stereo not drawn) [Compound (1-2), 2-(5-Chloro-2-(n-heptyloxy)phenyl)-1-(1H-1-imidazolyl)-2-propanol], the human-G-CSF equivalent concentration (compound conc. 10^−6 M) stood at 0.049 ± 0.0004 ng/mL, the human-G-CSF equivalent concentration (compound conc. 10^−7 M) turned out to be 0.037 ± 0.0003 ng/mL and the human-G-CSF equivalent concentration (compound conc. 10^−8 M) was 0.013 ± 0.0001 ng/mL.
Regarding `CCCCCCCCCOc1ccc(Cl)cc1C(C)(O)Cn1ccnc1` (stereo not drawn) [Compound (1-1), 2-(5-Chloro-2-(n-nonyloxy)phenyl)-1-(1H-1-imidazolyl)-2-propanol], the human-G-CSF equivalent concentration (compound conc. 10^−6 M) was 0.131 ± 0.001 ng/mL, the human-G-CSF equivalent concentration (compound conc. 10^−7 M) turned out to be 0.032 ± 0.0003 ng/mL and the human-G-CSF equivalent concentration (compound conc. 10^−8 M) is 0.015 ± 0.0001 ng/mL.
